Reference: ChEMBL document CHEMBL1681670, “Synthesis and cytotoxicity of (-)-renieramycin G analogs” (Bioorg Med Chem Lett, 2011)
≈ marks a conversion by molar mass, not a printed value.

Key:
A2780 = assay: Cytotoxicity against human A2780 cells after 3 days by MTT assay; type: functional, cell-based; settings: A2780, 72 h
MCF7 = assay: Cytotoxicity against human MCF7 cells after 3 days by MTT assay; type: functional, cell-based; settings: MCF7, 72 h
A549 = assay: Cytotoxicity against human A549 cells after 3 days by MTT assay; type: functional, cell-based; settings: A549, 72 h
BGC-823 = assay: Cytotoxicity against human BGC823 cells after 3 days by MTT assay; type: functional, cell-based; settings: BGC-823, 72 h
KETR3 = assay: Cytotoxicity against human Ketr3 cells after 3 days by MTT assay; type: functional, cell-based; settings: KETR3, 72 h
KB [1] = assay: Cytotoxicity against human KB cells after 3 days by MTT assay; type: functional, cell-based; settings: 72 h
HeLa = assay: Cytotoxicity against human HeLa cells after 3 days by MTT assay; type: functional, cell-based; settings: 72 h
Bel-7402 = assay: Cytotoxicity against human Bel7402 cells after 3 days by MTT assay; type: functional, cell-based; settings: Bel-7402, 72 h
HCT-8 = assay: Cytotoxicity against human HCT8 cells after 3 days by MTT assay; type: functional, cell-based; settings: HCT-8, 72 h
KB [2] = assay: Cytotoxicity against human KB cells; type: functional
LoVo = assay: Cytotoxicity against human LoVo cells; type: functional

Row | Compound | IC50 (A2780) | IC50 (MCF7) | IC50 (A549) | IC50 (BGC-823) | IC50 (KETR3) | IC50 (KB [1]) | IC50 (HeLa) | IC50 (Bel-7402) | IC50 (HCT-8) | MIC (KB [2]) | MIC (LoVo)
1 | COC1=C(C)C(=O)C2=C(C1=O)[C@@H]1[C@@H]3CC4=C(C(=O)C(OC)=C(C)C4=O)[C@H](COC(=O)c4cccnc4)N3C(=O)[C@H](C2)N1C | 12.2 µM | 17.4 µM | 5.94 µM | 3.38 µM | 4.62 µM | 3.16 µM | 3.39 µM | 6.47 µM | 19.4 µM |  | 
2 | COC1=C(C)C(=O)C2=C(C1=O)[C@@H]1[C@@H]3CC4=C(C(=O)C(OC)=C(C)C4=O)[C@H](COC(=O)/C=C/c4ccccc4)N3C(=O)[C@H](C2)N1C | 5 µM | 3.55 µM | 5 µM | 3.31 µM | 7.83 µM | 2.96 µM | 4.39 µM | 2.3 µM | 5 µM |  | 
3 | C/C=C/C(=O)OC[C@H]1C2=C(C[C@H]3[C@H]4C5=C(C[C@@H](C(=O)N13)N4C)C(=O)C(C)=C(OC)C5=O)C(=O)C(C)=C(OC)C2=O | 25.3 µM | 23.8 µM | 7.42 µM | 10.7 µM | 17.2 µM | 5.28 µM | 12.7 µM | 23.9 µM | 24.7 µM |  | 
4 | COC1=C(C)C(=O)C2=C(C1=O)[C@@H]1[C@@H]3CC4=C(C(=O)C(OC)=C(C)C4=O)[C@H](COC(=O)c4cccs4)N3C(=O)[C@H](C2)N1C | 1.44 µM | 1.86 µM | 0.71 µM | 0.52 µM | 1.67 µM | 0.02 µM | 0.47 µM | 1.6 µM | 1.48 µM |  | 
5 | C/C=C(/C)C(=O)OC[C@H]1C2=C(C[C@H]3[C@H]4C5=C(C[C@@H](C(=O)N13)N4C)C(=O)C(C)=C(OC)C5=O)C(=O)C(C)=C(OC)C2=O [(-)-RENIERAMYCIN G] | 4.17 µM | 3.78 µM | 5 µM | 3.37 µM | 3.42 µM | 3.3 µM | 2.88 µM | 9.07 µM | 8.81 µM | 0.5 µg/mL (≈ 0.886 µM) | 1 µg/mL (≈ 1.77 µM)
6 | COC1=C(C)C(=O)C2=C(C1=O)[C@@H]1[C@@H]3CC4=C(C(=O)C(OC)=C(C)C4=O)[C@H](COC(=O)c4cc(OC)c(OC)c(OC)c4)N3C(=O)[C@H](C2)N1C | 2.16 µM | 2.04 µM | 2.23 µM | 1.18 µM | 2.16 µM | 1.79 µM | 1.28 µM | 2.26 µM | 2.73 µM |  | 
7 | COC1=C(C)C(=O)C2=C(C1=O)[C@@H]1[C@@H]3CC4=C(C(=O)C(OC)=C(C)C4=O)[C@H](COC(=O)/C=C/c4cccc5ccccc45)N3C(=O)[C@H](C2)N1C | 9.09 µM | 3.94 µM | 5 µM | 11.7 µM | 7.89 µM | 8.67 µM | 7.42 µM | 9.81 µM | 9.31 µM |  | 
8 | C/C=C/C=C/C(=O)OC[C@H]1C2=C(C[C@H]3[C@H]4C5=C(C[C@@H](C(=O)N13)N4C)C(=O)C(C)=C(OC)C5=O)C(=O)C(C)=C(OC)C2=O | 2.44 µM | 2.54 µM | 3.2 µM | 3.5 µM | 3.86 µM | 2.03 µM | 2.43 µM | 2.13 µM | 3.47 µM |  | 
9 | COC1=C(C)C(=O)C2=C(C1=O)[C@@H]1[C@@H]3CC4=C(C(=O)C(OC)=C(C)C4=O)[C@H](COC(=O)c4ccccc4)N3C(=O)[C@H](C2)N1C | 3.07 µM | 4.94 µM | 3.88 µM | 8.35 µM | 8.82 µM | 2.83 µM | 3.1 µM | 3.78 µM | 6.06 µM |  | 
10 | COC1=C(C)C(=O)C2=C(C1=O)[C@@H]1[C@@H]3CC4=C(C(=O)C(OC)=C(C)C4=O)[C@H](COC(=O)/C=C/c4ccc(OC)c(OC)c4OC)N3C(=O)[C@H](C2)N1C | 16.8 µM | 10.6 µM | 10.6 µM | 9.34 µM | 9.29 µM | 8.22 µM | 5.1 µM | 14 µM | 12.4 µM |  | 
11 | COC1=C(C)C(=O)C2=C(C1=O)[C@@H]1[C@@H]3CC4=C(C(=O)C(OC)=C(C)C4=O)[C@H](COC(=O)/C=C/c4ccc(F)cc4)N3C(=O)[C@H](C2)N1C | 15.8 µM | 9.67 µM | 8.32 µM | 7.43 µM | 10.4 µM | 3.95 µM | 9.99 µM | 14.2 µM | 9.15 µM |  | 
12 | COC1=C(C)C(=O)C2=C(C1=O)[C@@H]1[C@@H]3CC4=C(C(=O)C(OC)=C(C)C4=O)[C@H](COC(=O)c4cc5ccccc5[nH]4)N3C(=O)[C@H](C2)N1C | 3.8 µM | 3.88 µM | 4.07 µM | 2.6 µM | 4.42 µM | 3.36 µM | 2.7 µM | 4.59 µM | 7.85 µM |  | 
13 | COC1=C(C)C(=O)C2=C(C1=O)[C@@H]1[C@@H]3CC4=C(C(=O)C(OC)=C(C)C4=O)[C@H](COC(C)=O)N3C(=O)[C@H](C2)N1C | 3.26 µM | 4.92 µM | 4.49 µM | 4.27 µM | 4.58 µM | 2.25 µM | 2.68 µM | 3.96 µM | 5.68 µM |  | 
14 | COC1=C(C)C(=O)C2=C(C1=O)[C@@H]1[C@@H]3CC4=C(C(=O)C(OC)=C(C)C4=O)[C@H](COC(=O)/C=C/c4ccc(OC)cc4)N3C(=O)[C@H](C2)N1C | 4.16 µM | 3.74 µM | 8.34 µM | 3.84 µM | 3.12 µM | 3.73 µM | 2.81 µM | 7.28 µM | 8.85 µM |  | 
15 | COC1=C(C)C(=O)C2=C(C1=O)[C@@H]1[C@@H]3CC4=C(C(=O)C(OC)=C(C)C4=O)[C@H](COC(=O)/C=C/c4cccnc4)N3C(=O)[C@H](C2)N1C | 2.24 µM | 2.23 µM | 2.05 µM | 1.26 µM | 1.43 µM | 0.39 µM | 1.18 µM | 2.3 µM | 2.05 µM |  | 
16 | COC1=C(C)C(=O)C2=C(C1=O)[C@@H]1[C@@H]3CC4=C(C(=O)C(OC)=C(C)C4=O)[C@H](COC(=O)c4cccc5ccccc45)N3C(=O)[C@H](C2)N1C | 15 µM | 14.1 µM | 12.5 µM | 17.5 µM | 13.8 µM | 5.41 µM | 7.58 µM | 10.9 µM | 28 µM |  | 
